Structures can show the parent of a compound that is named as a salt.
Columns and labels:
Cathepsin S = Cathepsin S (UniProt P25774); experiment: Cathepsin enzyme inhibition assay (fluorogenic peptide substrate Z-Val-Val-Arg-AMC), Cathepsin S; type: biochemical, human and mouse; settings: enzyme 1 nM, substrate 20 μM, pH 6.5; read-out: CatS IC50
In short: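 Compounds were combined with 1 nM human or mouse enzyme, and substrate then started the reaction. The buffer was potassium phosphate (100 mM, pH 6.5) containing EDTA-Na 5 mM, Triton X-100 0.001% and […] 5 mM.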

Cat L = Cat L (UniProt P07711); experiment: Cathepsin enzyme inhibition assay (fluorogenic peptide substrate Z-Val-Val-Arg-AMC), Cathepsin L; type: biochemical, human and mouse; settings: enzyme 1 nM, substrate 20 μM, pH 6.5; read-out: CatL IC50
In short: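 Fluorogenic cleavage of Z-Val-Val-Arg-AMC (20 μM) by 1 nM Cat L was monitored at ex 360/em 465 nm for 20 min, the linear phase. The buffer was 100 mM potassium phosphate pH 6.5 with 5 mM EDTA and DTT. IC50 values were derived by standard methods, in μM.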

| Compound | IC50 (Cathepsin S) [nM] | IC50 (Cat L) [nM] |
| --- | --- | --- |
| Cc1cc(N2C[C@H](S(=O)(=O)c3ccccc3Cl)C[C@H]2C(=O)NC2(C#N)CC2)n(Cc2ccccc2)n1 [Example 379, (2S,4R)-1-(2-Benzyl-5-methyl-2H-pyrazol-3-yl)-4-(2-chloro-benzenesulfonyl)-pyrrolidine-2-carboxylic acid (1-cyano-cyclopropyl)-amide] | 1.75 | 2710 |
| CC(=O)Nc1cccc(-n2nc(C)cc2N2C[C@H](S(=O)(=O)c3ccccc3C(F)(F)F)C[C@H]2C(=O)NC2(C#N)CC2)c1 [Example 356, (2S,4R)-1-[2-(3-Acetylamino-phenyl)-5-methyl-2H-pyrazol-3-yl]-4-(2-trifluoromethyl-benzenesulfonyl)-pyrrolidine-2-carboxylic acid (1-cyano-cyclopropyl)-amide] | 0.06 | 31800 |
| CC(C)(C)OC(=O)N1C[C@H](S(=O)(=O)c2ccccc2Cl)C[C@H]1C(=O)NC(C#N)c1ccccc1 (stereo partly drawn) [Example 36, (2S,4R)-4-(2-Chloro-benzenesulfonyl)-2-[(cyano-phenyl-methyl)-carbamoyl]-pyrrolidine-1-carboxylic acid tert-butyl ester] | 0.5 | 1270 |
| Cc1cc(N2C[C@H](S(=O)(=O)c3ccccc3Cl)C[C@H]2C(=O)NC2(C#N)CC2)n(C2CCS(=O)(=O)CC2)n1 [Example 479, (2S,4R)-4-[(2-Chlorophenyl)sulfonyl]-N-(1-cyanocyclopropyl)-1-[1-(1,1-dioxidotetrahydro-2H-thiopyran-4-yl)-3-methyl-1H-pyrazol-5-yl]-L-prolinamide] | 3.24 | 3070 |
| CC(C)(C)OC(=O)N1CCC(C(=O)N2C[C@H](S(=O)(=O)c3ccccc3Cl)C[C@H]2C(=O)NC2(C#N)CC2)(c2ccc(Cl)cc2)CC1 [Example 433, tert-butyl 4-(4-chlorophenyl)-4-((2S,4R)-4-(2-chlorophenylsulfonyl)-2-(1-cyanocyclopropylcarbamoyl)pyrrolidine-1-carbonyl)piperidine-1-carboxylate] | 1.95 | 945 |
| CC(=O)Nc1cccc(-n2nc(C)cc2N2C[C@H](S(=O)(=O)c3ccccc3C(F)(F)F)C[C@@H]2C(=O)NC2(C#N)CC2)c1 [Example 357, (2R,4R)-1-[2-(3-Acetylamino-phenyl)-5-methyl-2H-pyrazol-3-yl]-4-(2-trifluoromethyl-benzenesulfonyl)-pyrrolidine-2-carboxylic acid (1-cyano-cyclopropyl)-amide] | 17.5 | ≥ 25000 |
| N#CC1(NC(=O)[C@@H]2C[C@@H](S(=O)(=O)c3ccc(F)cc3F)CN2)CC1 [Example 17, (2S,4R)-4-(2,4-Difluoro-benzenesulfonyl)-pyrrolidine-2-carboxylic acid (1-cyano-cyclopropyl)-amide Hydrochloride] | 32 | ≥ 25000 |
| CCN1CCN(c2ccc(S(=O)(=O)[C@H]3CN[C@H](C(=O)NC4(C#N)CC4)C3)c(Cl)c2)CC1 [Example 140, (2S,4R)-4-[2-Chloro-4-(4-ethyl-piperazin-1-yl)-benzenesulfonyl]-pyrrolidine-2-carboxylic acid (1-cyano-cyclopropyl)-amide formiate] | 5.9 | 24500 |
| CN1CCN(c2ccc(S(=O)(=O)[C@H]3CN[C@H](C(=O)NC4(C#N)CC4)C3)c(C(F)(F)F)c2)CC1 [Example 21, (2S,4R)-4-[4-(4-Methyl-piperazin-1-yl)-2-trifluoromethyl-benzenesulfonyl]-pyrrolidine-2-carboxylic acid (1-cyano-cyclopropyl)-amide hydrochloride] | 0.8 | 40800 |
| COc1ccc(S(=O)(=O)[C@@H]2C[C@@H](C(=O)NC3(C#N)CC3)N(c3cc(C)nn3C3CCC3)C2)c(Cl)c1 [Example 375, (2S,4R)-4-(2-Chloro-4-methoxy-benzenesulfonyl)-1-(2-cyclobutyl-5-methyl-2H-pyrazol-3-yl)-pyrrolidine-2-carboxylic acid (1-cyano-cyclopropyl)-amide] | 0.29 | 5370 |
| N#CC1(NC(=O)[C@@H]2C[C@@H](S(=O)(=O)c3ccc(OCC(F)(F)F)cc3Cl)CN2C(=O)C2(C#N)CC2)CC1 [Example 243, (2S,4R)-4-[2-Chloro-4-(2,2,2-trifluoro-ethoxy)-benzenesulfonyl]-1-(1-cyano-cyclopropanecarbonyl)-pyrrolidine-2-carboxylic acid (1-cyano-cyclopropyl)-amide] | 0.455 | 12300 |
| N#CC1(NC(=O)[C@@H]2C[C@@H](S(=O)(=O)c3ccc(OCC(F)(F)F)cc3Cl)CN2C(=O)C2(c3ccc(Br)cc3)CC2)CC1 [Example 273, (2S,4R)-1-[1-(4-Bromo-phenyl)-cyclopropanecarbonyl]-4-[2-chloro-4-(2,2,2-trifluoro-ethoxy)-benzenesulfonyl]-pyrrolidine-2-carboxylic acid (1-cyano-cyclopropyl)-amide] | 0.29 | 8.06 |
| COCCOc1ccc(S(=O)(=O)[C@@H]2C[C@@H](C(=O)NC3(C#N)CC3)N(c3cc(C)nn3C3CCOCC3)C2)c(Cl)c1 [Example 488, (2S,4R)-4-[2-Chloro-4-(2-methoxy-ethoxy)-benzenesulfonyl]-1-[5-methyl-2-(tetrahydro-pyran-4-yl)-2H-pyrazol-3-yl]-pyrrolidine-2-carboxylic acid (1-cyano-cyclopropyl)-amide] | 2.5 | 3880 |
| CN1CCC[C@H]1C(=O)N1C[C@H](S(=O)(=O)c2ccccc2Cl)C[C@H]1C(=O)NC1(C#N)CC1 [Example 81, (R)-4-(2-Chloro-benzenesulfonyl)-1-((S)-1-methyl-pyrrolidine-2-carbonyl)-pyrrolidine-2-carboxylic acid (1-cyano-cyclopropyl)-amide formiate] | 3.2 | 6030 |
| N#CC1(NC(=O)[C@@H]2C[C@@H](S(=O)(=O)c3ccccc3Cl)CN2C(=O)Cc2ccc(Cl)c(F)c2)CC1 [Example 444, (2S,4R)-4-(2-Chloro-benzenesulfonyl)-1-[2-(4-chloro-3-fluoro-phenyl)-acetyl]-pyrrolidine-2-carboxylic acid (1-cyano-cyclopropyl)-amide] | 0.895 | 260 |
| N#CC1(NC(=O)[C@@H]2C[C@@H](S(=O)(=O)c3ccccc3Cl)CN2C(=O)c2ccccc2)CC1 [Example 75, (2S,4R)-1-Benzoyl-4-(2-chloro-benzenesulfonyl)-pyrrolidine-2-carboxylic acid (1-cyano-cyclopropyl)-amide] | 0.8 | 6790 |
| CC(C)CC(=O)N1C[C@H](S(=O)(=O)c2ccccc2Cl)C[C@H]1C(=O)NC1(C#N)CC1 [Example 220, (2S,4R)-4-(2-Chloro-benzenesulfonyl)-1-(3-methyl-butyryl)-pyrrolidine-2-carboxylic acid (1-cyano-cyclopropyl)-amide] | 0.4 | 17800 |
| CC(C)(C)OC(=O)N1C[C@H](S(=O)(=O)c2ccc(N3CCC(F)(F)C3)cc2Cl)C[C@H]1C(=O)NC1(C#N)CC1 [Example 130, (2S,4R)-4-[2-Chloro-4-(3,3-difluoro-pyrrolidin-1-yl)-benzenesulfonyl]-2-(1-cyano-cyclopropylcarbamoyl)-pyrrolidine-1-carboxylic acid tert.-butyl ester] | 2.4 | ≥ 25000 |
